Results from PMC9763021, “Comprehensive Assessment of Biomolecular Interactions of Morpholine-Based Mixed Ligand Cu(II) and Zn(II) Complexes of 2,2′-Bipyridine as Potential Anticancer and SARS-CoV-2 Agents: A Synergistic Experimental and Structure-Based Virtual Screening” (Bioinorganic Chemistry and Applications, 2022).

Columns and labels:
[1] = tested on: calf thymus deoxyribonucleic acid; assay: DNA binding by viscometric (hydrodynamic) technique
Description: The titrations were performed for all compounds including EB (control) at 20, 40, 60, 80, and 100 μM concentrations. In the Ostwald viscometer, these substances were also separately treated with the calf thymus deoxyribonucleic acid solution (100 μM).
Hydrodynamic findings can be utilized to assess the alteration of DNA length and afford details on the binding tendency between small molecules and biomolecules. As a result of their sensitivity to DNA contour length changes, which implies that the average distance between each monomer (cl = 0.338 nm/bp for B-form DNA), the DNA binding properties of all test compounds were further validated by this method. According to the Lerman concept, interactions between small molecules and deoxyribonucleic acid via covalent and noncovalent bindings are often possible. When a chemical substance interacts with the deoxyribonucleic acid double helix, the contour length of DNA increases via intercalation and leads to an increase in the absolute viscosity. Meanwhile, if DNA viscosity is not affected during interactions, which leads to the responsible for the major/minor groove binding due to H-bond/Van der Waals interactions, electrostatic, partial, or nonclassical interaction modes. Therefore, analyzing the binding modes provides additional support for the findings as well as a crucial aspect of the conventional intercalation concept. In this case, it was observed that the absolute viscosity increased consistently along with the concentration of each substance at the fixed DNA concentration. The DNA must extend to facilitate the binding of ligands, which causes a considerable rise in DNA viscosity while small molecules intercalate into the DNA helix. According to equation (12), an increase in relative viscosity denotes an intercalation-induced lengthening of the deoxyribonucleic acid base pair. While adhering to the principle of excluding the nearest neighbors, intercalation entails inserting a planar molecule into a DNA base pair without rupturing the hydrogen bonds that hold the base pairs together. This causes a diminution in the DNA helical twist and an extension of the DNA. Moreover, a molecule can be presumed to bind to deoxyribonucleic acid by intercalation between base pairs if it causes lengthening and unwinding of the deoxyribonucleic acid base pairs. In this case, the relative viscosity of DNA gradually increases, while the […]. Moreover, the affinity interactions and their slope values were observed from the relative specific viscosity (η⁄η0)^1/3 plotted straight line contrasting [Compound]/[DNA], and absolute specific viscosity of deoxyribonucleic acid in the absence or presence of samples was evaluated using equation (12) (Table 3). […] The evaluated slope findings were in the subsequent sequence: (EB) 1.215 > (1a) 0.915 > (2a) 0.630 > (HL) 0.490 (Figure S21 and Table 3). […] Due to the existence of the 2,2′-bipyridine and morpholine-fused aromatic planar systems, compounds can interact with deoxyribonucleic acid robustly via intercalation. The outcomes were excellent in accordance with the observed outcomes of absorption spectral properties.(11) η/η0^1/3=tcomplex−t0/t0/tDNA−t0/t0, where η and η0 are represented as specific viscosity of DNA in the presence complex and specific viscosity of DNA alone, and t0, tDNA, and tcomplex are represented as the average flow time of the Tris-HCl buffer solution, the average flow time of DNA alone solution, and the average flow time of DNA interacted with the samples, respectively. Error limit is ±2.5% (P < 0.025).

[2] = Hydroxyl radical scavenging assay; format: biochemical; conditions: for % Inhibition hydroxyl radical: 230 nm
Description: (§1) All samples were evaluated for their scavenging ability with the help of UV-visible spectrophotometer at different concentrations of 40, 80, 120, 160, 200, and 240 μM [6, 28]. While performing the antioxidant properties for the DPPH, hydroxyl, superoxide, and nitric oxide radical scavenging, the absorbance at 517, 230, 590, and 546 nm, respectively, was closely observed. In addition, the observed IC50 values of all samples were compared with ascorbic acid.
Hydrogen peroxide receives electrons from antioxidant molecules and then neutralizes them into a water molecule. ^●OH inhibition capability was determined from the % of inhibition for all test substances at 230 nm.

[3] = Superoxide scavenging assay; format: biochemical; conditions: for % Inhibition superoxide: 590 nm
Description: as §1
A vital enzyme catalyst in the body's defence against free radicals, superoxide dismutase (SOD) quickly and efficiently reduces toxicity and cellular damage by exchanging superoxide with water (or) harmless molecules. The % of inhibition for all substances was analyzed at 590 nm. The outcomes were obtained in the subsequent order: (ascorbic acid) 84.85 > (1a) 67.17 > (2a) 58.18 > (HL) 50.42.

[4] = Nitric oxide scavenging assay; format: biochemical; conditions: for % Inhibition nitric oxide: 546 nm
Description: as §1
The diffusible nitric oxide free radical is a crucial chemical mediator, which assists in overcoming diverse chronological human diseases. The NO free radical scavenging potential for all test samples was also carried out at 546 nm. It monitored the alterations in electronic absorption intensity of the nitric oxide radical inhibition outcome concerning the sample concentrations. When the test sample concentration rises, the nitric oxide free inhibition effectiveness also increases. The measured % of nitric oxide radical scavenging capability for all samples at 240 μM was obtained in the subsequent order (ascorbic acid) 72.73 > (1a) 65.47 > (2a) 58.43 > (HL) 51.62.

[5] = DPPH radical scavenging assay; format: biochemical; conditions: for % Inhibition DPPH: 517 nm
Description: as §1
The colour of an aqueous or methanol solution changes from deep purple to pale yellow when DPPH, a stable chromogen free radical, combines with an antioxidant molecule, which means that DPPH quickly absorbs the hydrogen or electrons from the donor groups. In this case, for the baseline correction, a blank DPPH solution in the absence of a test compound was employed, and 517 nm (ε = 8320 M^−1·cm^−1) was attained to have a significant absorption maximum. […] The DPPH radicals are reduced by an antioxidant compound (AH), in which the reduction of electronic absorbance for each compound was vigilantly noted at 517 nm. The capacity to block radicals improves as the sample concentration increases. The assessed percentage of maximum inhibition for all substances was found at 240 μM in the subsequent order: (ascorbic acid) (85.65) > (1a) 68.64 > (2a) 59.55 > (HL) 52.45. […] Moreover, the % of scavenging or maximum inhibition for all substances is estimated with the aid of equation (44) (Table S14).(43) Scavanging%=A0−AS/A0×100

[6] = tested on: Mucor indicus; assay: Agar disc diffusion, strain J; format: cell-based; set-up: (inhibition %): concentration or dose not given beside the values
Description: (§2) In-vitro antimicrobial properties were evaluated for all samples by the agar disc diffusion method towards different fungal and bacterial strains. Additionally, the reported inhibition zone values were comparatively analyzed with the standard antifungal drugs ketoconazole and amphotericin B as well as the standard antibiotic medications streptomycin and amikacin.
(§3) The current research has a curious focus on the in vitro antimicrobial properties of biological systems because these studies are crucial for developing effective antibacterial and antifungal medications. […] It can also be spelled out based on the chelation theory proposed by Overtone and Tweedy. Chelation theory points out that the partial exchanging of the positive charge of the metal center with donor moieties, and overlap of the ligand orbitals will reduce the greater degree of the metal ion's polarity, which ultimately rises the delocalization of π and d electrons over the full chelated ring system. By raising the size of the metal ion due to the retarding of polarization, chelation may also enhance the complexes' lipophilic characteristics, which further stimulate the lipid membrane permeability and break down the bacteria' enzymes responsible for cell wall formation, therefore slowing down the regular cell processes. By preventing the production of cell walls/proteins/DNA, including by obstructing folate metabolism and the cytoplasmic membrane, antimicrobial drugs frequently either fully eliminate microbes or only prevent their cell growth. Additionally, the samples' mode of action may be employed in disrupting the cell's respiration process by forming an H-bond during the morpholine-fused iminic group coordinated with the active metal center of its components, inhibiting proliferation of the cell. […] The difference in the antimicrobial efficacy of some of the compounds towards various microorganisms influences on the impermeability of the cells of the germs or the diversity of ribosomes of the microbes. The % of the inhibition of all substances is estimated from (45) (Table 9).
(§4) (A, B, C, D, and E are represented as gram negative bacteria species Escherichia coli, Salmonella enteric serovar typhi, Salmonella enteric serovar typhi, Pseudomonas aeruginosa, and Shigella flexneri, respectively. F & G are denoted as gram positive bacteria species Staphylococcus aureus and Bacillus cereus. H, I, and J are represented as fungal strains Aspergillus niger, Candida albicans, and Mucor indicus. Standard drugs for bacterial strains: Amikacin & Streptomycin Standard drugs for fungal strains: Ketoconazole and Amphotericin B. [Control (DMSO) = 6 mm].(44) Inhibition %=T–C/T×100, where T and C are represented as the diameter of microbial growth of the sample plates and the control plate (6 mm), respectively. Error limits ±2.5–5.0% (P ≤ 0.05).

[7] = tested on: Candida albicans; assay: Agar disc diffusion, strain I; format: cell-based; set-up: (inhibition %): concentration or dose not given beside the values
Description: as §2, §3, §4

[8] = tested on: Aspergillus niger; assay: Agar disc diffusion, strain H; format: cell-based; set-up: (inhibition %): concentration or dose not given beside the values
Description: as §2, §3, §4

Compound: CC[n+]1c(-c2ccccc2)c2cc(N)ccc2c2ccc(N)cc21 [EB (control), Ethidium bromide, reference compound]
- Slope of (η/η0)^1/3 vs [Compound]/[DNA] [1]: 1.215
- Relative specific viscosity (η/η0)^1/3 ([1]; [complex]/[DNA] = 0.2): 1.01
- Relative specific viscosity (η/η0)^1/3 ([1]; [complex]/[DNA] = 0.4): 1.35
- Relative specific viscosity (η/η0)^1/3 ([1]; [complex]/[DNA] = 0.6): 1.63
- Relative specific viscosity (η/η0)^1/3 ([1]; [complex]/[DNA] = 0.8): 1.82
- Relative specific viscosity (η/η0)^1/3 ([1]; [complex]/[DNA] = 1.0): 1.99

Compound: O=C1O[C@H]([C@@H](O)CO)C(O)=C1O [Ascorbic acid, reference compound]
- IC50 [2]: 160 µM
- % Inhibition hydroxyl radical ([2]; 40 µM): 20.73%
- % Inhibition hydroxyl radical ([2]; 80 µM): 36.46%
- % Inhibition hydroxyl radical ([2]; 120 µM): 47.87%
- % Inhibition hydroxyl radical ([2]; 160 µM): 59.65%
- % Inhibition hydroxyl radical ([2]; 200 µM): 65.64%
- % Inhibition hydroxyl radical ([2]; 240 µM): 78.83%
- IC50 [3]: 120 µM
- % Inhibition superoxide ([3]; 40 µM): 29.64%
- % Inhibition superoxide ([3]; 80 µM): 41.72%
- % Inhibition superoxide ([3]; 120 µM): 55.63%
- % Inhibition superoxide ([3]; 160 µM): 66.75%
- % Inhibition superoxide ([3]; 200 µM): 72.55%
- % Inhibition superoxide ([3]; 240 µM): 84.85%
- IC50 [4]: 160 µM
- % Inhibition nitric oxide ([4]; 40 µM): 28.55%
- % Inhibition nitric oxide ([4]; 80 µM): 35.75%
- % Inhibition nitric oxide ([4]; 120 µM): 43.65%
- % Inhibition nitric oxide ([4]; 160 µM): 52.68%
- % Inhibition nitric oxide ([4]; 200 µM): 63.72%
- % Inhibition nitric oxide ([4]; 240 µM): 72.73%
- IC50 [5]: 80 µM
- % Inhibition DPPH ([5]; 40 µM): 41.63%
- % Inhibition DPPH ([5]; 80 µM): 53.74%
- % Inhibition DPPH ([5]; 120 µM): 58.95%
- % Inhibition DPPH ([5]; 160 µM): 70.86%
- % Inhibition DPPH ([5]; 200 µM): 82.75%
- % Inhibition DPPH ([5]; 240 µM): 85.65%

Compound: CC(=O)N1CCN(c2ccc(OCC3COC(Cn4ccnc4)(c4ccc(Cl)cc4Cl)O3)cc2)CC1 (stereo not shown) [Ketoconazole, reference compound]
- (inhibition %) [6]: 67%
- diameter of the clear zone inhibition ([6]; control = 6 mm): 18 mm
- (inhibition %) [7]: 67%
- diameter of the clear zone inhibition ([7]; control = 6 mm): 18 mm
- (inhibition %) [8]: 63%
- diameter of the clear zone inhibition ([8]; control = 6 mm): 16 mm
